In the supplement of paper PMC7021759:
± gives the standard deviation of the averaged measurements.

System: SK-N-MM (SKNMM-MYCN, doxycycline-inducible MYCN)
Assay: area under dose-response curve (CellTiter-Glo viability normalised to plate controls) (AUC (arbitrary units)); higher = more loss of viability; extreme values may be limits of the assay
Method in brief: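 SK-N-MM cells with doxycycline-inducible MYCN were plated at 1250 cells/100 μL in 96-well plates and given medium with or without doxycycline about 24 h later. Two days later, 10-point 1:3 compound dilution series were pin-transferred (890-fold stock dilution) and re-dosed on day 4. CellTiter-Glo luminescence was read 3 or 8 days after drugging. Log2 signals were normalised to plate positive and negative controls, and area under the dose-response curve was computed.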

[1] = MYCN induction (doxycycline): +doxycycline (MYCN induced), time after drugging: 3 days
[2] = MYCN induction (doxycycline): +doxycycline (MYCN induced), time after drugging: 8 days
[3] = MYCN induction (doxycycline): no doxycycline (MYCN not induced), time after drugging: 3 days
[4] = MYCN induction (doxycycline): no doxycycline (MYCN not induced), time after drugging: 8 days

SMILES | area under dose-response curve [1] | area under dose-response curve [2] | area under dose-response curve [3] | area under dose-response curve [4]
Cc1[nH]c2ccccc2c1CCNCc1ccc(/C=C/C(=O)NO)cc1 [PANOBINOSTAT] | 171 ± 12 | 306 ± 5.3 | 114 ± 27 | 287 ± 4.4
CO[C@@H]1[C@H](N(C)C(=O)c2ccccc2)C[C@H]2O[C@]1(C)n1c3ccccc3c3c4c(c5c6ccccc6n2c5c31)C(=O)NC4 [MIDOSTAURIN] | 59.7 | 122 | 65.6 | 127
CS(=O)(=O)CCNCc1ccc(-c2ccc3ncnc(Nc4ccc(OCc5cccc(F)c5)c(Cl)c4)c3c2)o1 [LAPATINIB] | 0 | 0 | 0 | 0
CCOc1cc2ncc(C#N)c(Nc3ccc(OCc4ccccn4)c(Cl)c3)c2cc1NC(=O)/C=C/CN(C)C [NERATINIB] | 106 | 154 | 98.3 | 151
COc1cc(Nc2ncc3c(n2)-c2ccc(Cl)cc2C(c2c(F)cccc2OC)=NC3)ccc1C(=O)O [ALISERTIB] | 51.1 ± 1.1 | 126 ± 21 | 15.2 ± 0.59 | 69.4 ± 30
CN1C(=O)[C@@]23C[C@]4([C@]56C[C@@]78SS[C@@](CO)(C(=O)N7[C@H]5Nc5ccccc56)N(C)C8=O)c5ccccc5N[C@@H]4N2C(=O)[C@]1(CO)SS3 [CHAETOCIN] | 327 | 374 | 349 | 373
COc1cc(F)ccc1-c1ncnc(Nc2cccc(CS(C)(=N)=O)c2)n1 (stereo not drawn) | 50.3 | 123 | 34 | 131
COc1cc(CCc2cc(NC(=O)c3ccc(N4CC(C)NC(C)C4)cc3)n[nH]2)cc(OC)c1 (stereo not drawn) [AZD4547] | 2.86 | 3.53 | 2.67 | 3.59
Clc1ccc(C(c2ccccc2Cl)C(Cl)Cl)cc1 (stereo not drawn) [MITOTANE] | 0 | 0 | 0 | 0
CN(N=O)C(=O)N[C@H]1C(O)O[C@H](CO)[C@@H](O)[C@@H]1O (mixture of isomers) [STREPTOZOSIN] | 0 | 0 | 0 | –
CCN(CCO)CCCC(C)Nc1ccnc2cc(Cl)ccc12 (stereo not drawn) [HYDROXYCHLOROQUINE] | 0 | 0 | – | 0
COc1c(C)c2c(c(O)c1C/C=C(\C)CCC(=O)OCCN1CCOCC1)C(=O)OC2 [MYCOPHENOLATE MOFETIL] | 43.8 | 115 | 25.9 | 51.4
CC[C@@H]1C(=O)N(C)c2cnc(Nc3ccc(C(=O)N[C@H]4CC[C@H](N5CCN(CC6CC6)CC5)CC4)cc3OC)nc2N1C(C)C [VOLASERTIB] | 87.9 | 138 | – | 75.2
CCC1=C[C@@H]2CN(C1)Cc1c([nH]c3ccccc13)[C@@](C(=O)OC)(c1cc3c(cc1OC)N(C)[C@H]1[C@@](O)(C(=O)OC)[C@H](OC(C)=O)[C@]4(CC)C=CCN5CC[C@]31[C@@H]54)C2 [VINORELBINE] | 207 | 296 | 99.3 | 144
CN(C)C1CCN(C(=O)c2ccc(NC(=O)Nc3ccc(-c4nc(N5CCOCC5)nc(N5CCOCC5)n4)cc3)cc2)CC1 [GEDATOLISIB] | 39.4 | 0 | 27.4 | 47.7
CC(=O)O[C@@H](C)/C=C\C(=O)N[C@@H]1C[C@H](C)[C@H](C/C=C(C)/C=C/[C@H]2O[C@](C)(O)C[C@@]3(CO3)[C@@H]2O)O[C@@H]1C | 13.5 | 33.2 | – | 28.1
CCOC(=O)c1ccc(C#Cc2ccc3c(c2)C(C)(C)CCS3)nc1 [TAZAROTENE] | 3.59 | 9.49 | – | 0.284
C[C@H]1[C@H](OC(=O)CCC(=O)O)O[C@@H]2O[C@@]3(C)CC[C@H]4[C@H](C)CC[C@@H]1[C@@]24OO3 [ARTESUNATE] | 46.2 | 60 | 25.7 | 25.9
COc1cc(NCc2ccc3nc(N)nc(N)c3c2C)cc(OC)c1OC [TRIMETREXATE] | 27.5 | 140 | 18.8 | 47.1
CC1(C)CCC(C)(C)c2cc(NC(=O)c3ccc(C(=O)O)cc3)ccc21 [TAMIBAROTENE] | 1.1 | 3.09 | 0 | 0
COc1ncc(-c2ccc3nccc(-c4ccnnc4)c3c2)cc1NS(=O)(=O)c1ccc(F)cc1F [OMIPALISIB] | 105 | 183 | 86.2 | 160
Nc1nc(F)nc2c1ncn2[C@@H]1O[C@H](COP(=O)(O)O)[C@@H](O)[C@@H]1O [FLUDARABINE PHOSPHATE] | 0 | 0 | 0 | 57.1
CC1(C)CCC(CN2CCN(c3ccc(C(=O)NS(=O)(=O)c4ccc(NCC5CCOCC5)c([N+](=O)[O-])c4)c(Oc4cnc5[nH]ccc5c4)c3)CC2)=C(c2ccc(Cl)cc2)C1 [VENETOCLAX] | – | 2.61 ± 3.7 | 0 | 0
Cc1cnc(NC(=O)Nc2cc(Br)c(C)cc2OC[C@@H]2CNCCO2)cn1 [RABUSERTIB] | 89.5 | 171 | 31 | 95.5
CC(C)(C)c1nc(-c2cccc(NS(=O)(=O)c3c(F)cccc3F)c2F)c(-c2ccnc(N)n2)s1 [DABRAFENIB] | 9.29 | 0 | 14.1 | 10.8
Cc1cc(Nc2cc(N3CCN(C)CC3)nc(/C=C/c3ccccc3)n2)n[nH]1 [ENMD-2076] | 86 | 133 | 0.719 | 111
CN(Cc1cnc2nc(N)nc(N)c2n1)c1ccc(C(=O)N[C@@H](CCC(=O)O)C(=O)O)cc1 [METHOTREXATE] | 3.6 | 18.6 | 0.0478 | –
CC/C(=C(\c1ccccc1)c1ccc(OCCN(C)C)cc1)c1ccccc1 [TAMOXIFEN] | 0 | 0 | 0 | 0
CC1=C(CC(=O)O)c2cc(F)ccc2/C1=C\c1ccc([S+](C)[O-])cc1 (stereo not drawn) [SULINDAC] | – | 0 | 0 | 0
